From patent EP0545805A1, “Use of D-fenfluramine and fenfluramine derivatives in the treatment of hypertension in insulin-resistant patients” (ADIR ET COMPAGNIE, priority 1991, dated 1993)

Experiments:
rat âgé = assay: Chronic treatment of the aged rat (insulin resistance, hyperinsulinaemia, raised blood pressure): blood pressure; assay type: in vivo
Experimental: 2- Etude du traitement chronique du rat âgé
Au cours du vieillissement, une insulino-résistance apparaît, accompagnée d'une hyperinsulinémie et d'une élévation de la pression artérielle (cf tableau 1 ci-après).
Le traitement par la d-fenfluramine à la dose de 2,5 mg/kg 2 fois par jour pendant 3 semaines, diminue la pression artérielle du rat âgé de 12.10² Pa sans modifier celle du rat jeune.

réactivité vasculaire = assay: Vascular reactivity after chronic treatment of the aged rat: maximum contraction to serotonin and ADP; assay type: in vivo; settings: 12-month rats treated with d-fenfluramine
Description: Cet effet est relié à une normalisation de la réactivité vasculaire, en particulier à la sérotonine et à l'ADP (cf tableau 2 ci-après).

[1] = from cited literature (Storlien et al., Brindley et al., Carr et al., Duhault et al., Pestell et al.); cited from earlier work

CC(Cc1cccc(C(F)(F)F)c1)NCCOC(=O)c1ccccc1 (centres unmarked) [benfluorex]
Blood pressure and vascular reactivity of the aged rat (results compared with d-fenfluramine) (rat âgé; 50 mg/kg, 5 times per day): résultats analogues

CCN[C@@H](C)Cc1cccc(C(F)(F)F)c1 [d-fenfluramine]
pression artérielle du rat jeune (rat âgé; young rat, 2,5 mg/kg twice daily for 3 weeks): sans modifier | Maximum de contraction Sérotonine (réactivité vasculaire; expressed relative to KCl = 100 % contraction): 145% | Maximum de contraction ADP (réactivité vasculaire; expressed relative to phenylephrine = 100 % contraction): 66%

CCNC(C)Cc1cccc(C(F)(F)F)c1 (racemic) [dl fenfluramine]
insulino-résistance et hyperinsulinémie basale [1]: capables de réduire l'insulino-résistance et l'hyperinsulinémie basale
